{"source": "PubChem BioAssay (NCI)", "assay_in_all_cases": "NCI tumour cell line growth inhibition, 48 h", "key": {"[1]": {"system": "IGROV1 ovarian"}, "[2]": {"system": "KM12 colon"}, "[3]": {"system": "SNB-75 CNS"}, "[4]": {"system": "ACHN renal"}, "[5]": {"system": "SN12C renal"}, "[6]": {"system": "NCI-H23 lung"}, "[7]": {"system": "HS 578T breast"}, "[8]": {"system": "HT29 colon"}, "[9]": {"system": "OVCAR-8 ovarian"}, "[10]": {"system": "RXF 393 renal"}, "[11]": {"system": "COLO 205 colon"}, "[12]": {"system": "CCRF-CEM leukemia"}, "[13]": {"system": "LOX IMVI melanoma"}, "[14]": {"system": "A549 NSCLC"}, "[15]": {"system": "HCT-116 colon"}, "[16]": {"system": "SR leukemia"}, "[17]": {"system": "RPMI-8226 leukemia"}, "[18]": {"system": "MDA-MB-231 breast"}, "[19]": {"system": "SF-539 CNS"}, "[20]": {"system": "MCF7 breast"}, "[21]": {"system": "DU-145 prostate"}, "[22]": {"system": "NCI/ADR-RES ovarian"}, "[23]": {"system": "HCC-2998 colon"}, "[24]": {"system": "UACC-257 melanoma"}, "[25]": {"system": "EKVX NSCLC"}, "[26]": {"system": "SW-620 colon"}, "[27]": {"system": "M14 melanoma"}, "[28]": {"system": "SF-295 CNS"}, "[29]": {"system": "MDA-MB-435"}, "[30]": {"system": "MDA-N"}, "[31]": {"system": "MOLT-4 leukemia"}, "[32]": {"system": "HL-60(TB) leukemia"}, "[33]": {"system": "T-47D breast"}, "[34]": {"system": "TK-10 renal"}, "[35]": {"system": "HCT-15 colon"}, "[36]": {"system": "OVCAR-4 ovarian"}, "[37]": {"system": "SK-MEL-28 melanoma"}, "[38]": {"system": "PC-3 prostate"}, "[39]": {"system": "OVCAR-3 ovarian"}, "[40]": {"system": "MALME-3M melanoma"}, "[41]": {"system": "CAKI-1 renal"}, "[42]": {"system": "HOP-92 NSCLC"}, "[43]": {"system": "K-562 leukemia"}, "[44]": {"system": "OVCAR-5 ovarian"}, "[45]": {"system": "SK-OV-3 ovarian"}, "[46]": {"system": "HOP-62 NSCLC"}, "[47]": {"system": "SK-MEL-5 melanoma"}, "[48]": {"system": "UACC-62 melanoma"}, "[49]": {"system": "786-0 renal"}, "[50]": {"system": "U251 CNS"}, "[51]": {"system": "NCI-H460 lung"}, "[52]": {"system": "SK-MEL-2 melanoma"}, "[53]": {"system": "SF-268 CNS"}, "[54]": {"system": "SNB-19 CNS"}, "[55]": {"system": "NCI-H522 lung"}, "[56]": {"system": "UO-31 renal"}}, "note": "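Five compound concentrations were applied to cells in 96-well plates for 48 hours; endpoints were derived by simple linear interpolation of the resulting dose-response curve. TGI: concentration producing complete growth inhibition.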", "data": [{"compound": "N#C[C@H]1Nc2ccccc2[C@@H](O)C1O", "note": "(stereo not given in full)", "values": [{"measurement": "TGI", "setting": "[1]", "result": "> 100", "unit": "µM"}, {"measurement": "TGI", "setting": "[2]", "result": "> 100", "unit": "µM"}, {"measurement": "TGI", "setting": "[3]", "result": "> 100", "unit": "µM"}, {"measurement": "TGI", "setting": "[4]", "result": "> 100", "unit": "µM"}, {"measurement": "TGI", "setting": "[5]", "result": "> 100", "unit": "µM"}, {"measurement": "TGI", "setting": "[6]", "result": "> 100", "unit": "µM"}, {"measurement": "TGI", "setting": "[7]", "result": "> 100", "unit": "µM"}, {"measurement": "TGI", "setting": "[8]", "result": "> 100", "unit": "µM"}, {"measurement": "TGI", "setting": "[9]", "result": "> 100", "unit": "µM"}, {"measurement": "TGI", "setting": "[10]", "result": "> 100", "unit": "µM"}, {"measurement": "TGI", "setting": "[11]", "result": "> 100", "unit": "µM"}, {"measurement": "TGI", "setting": "[12]", "result": "> 100", "unit": "µM"}, {"measurement": "TGI", "setting": "[13]", "result": "> 100", "unit": "µM"}, {"measurement": "TGI", "setting": "[14]", "result": "> 100", "unit": "µM"}, {"measurement": "TGI", "setting": "[15]", "result": "> 100", "unit": "µM"}, {"measurement": "TGI", "setting": "[16]", "result": "> 100", "unit": "µM"}, {"measurement": "TGI", "setting": "[17]", "result": "> 100", "unit": "µM"}, {"measurement": "TGI", "setting": "[18]", "result": "> 100", "unit": "µM"}, {"measurement": "TGI", "setting": "[19]", "result": "> 100", "unit": "µM"}, {"measurement": "TGI", "setting": "[20]", "result": "> 100", "unit": "µM"}, {"measurement": "TGI", "setting": "[21]", "result": "> 100", "unit": "µM"}, {"measurement": "TGI", "setting": "[22]", "result": "> 100", "unit": "µM"}, {"measurement": "TGI", "setting": "[23]", "result": "> 100", "unit": "µM"}, {"measurement": "TGI", "setting": "[24]", "result": "> 100", "unit": "µM"}, {"measurement": "TGI", "setting": "[25]", "result": "> 100", "unit": "µM"}, {"measurement": "TGI", "setting": "[26]", "result": "> 100", "unit": "µM"}, {"measurement": "TGI", "setting": "[27]", "result": "> 100", "unit": "µM"}, {"measurement": "TGI", "setting": "[28]", "result": "> 100", "unit": "µM"}, {"measurement": "TGI", "setting": "[29]", "result": "> 100", "unit": "µM"}, {"measurement": "TGI", "setting": "[30]", "result": "> 100", "unit": "µM"}, {"measurement": "TGI", "setting": "[31]", "result": "> 100", "unit": "µM"}, {"measurement": "TGI", "setting": "[32]", "result": "> 100", "unit": "µM"}, {"measurement": "TGI", "setting": "[33]", "result": "> 100", "unit": "µM"}, {"measurement": "TGI", "setting": "[34]", "result": "> 100", "unit": "µM"}, {"measurement": "TGI", "setting": "[35]", "result": "> 100", "unit": "µM"}, {"measurement": "TGI", "setting": "[36]", "result": "> 100", "unit": "µM"}, {"measurement": "TGI", "setting": "[37]", "result": "> 100", "unit": "µM"}, {"measurement": "TGI", "setting": "[38]", "result": "> 100", "unit": "µM"}, {"measurement": "TGI", "setting": "[39]", "result": "> 100", "unit": "µM"}, {"measurement": "TGI", "setting": "[40]", "result": "> 100", "unit": "µM"}, {"measurement": "TGI", "setting": "[41]", "result": "> 100", "unit": "µM"}, {"measurement": "TGI", "setting": "[42]", "result": "> 100", "unit": "µM"}, {"measurement": "TGI", "setting": "[43]", "result": "> 100", "unit": "µM"}, {"measurement": "TGI", "setting": "[44]", "result": "> 100", "unit": "µM"}, {"measurement": "TGI", "setting": "[45]", "result": "> 100", "unit": "µM"}, {"measurement": "TGI", "setting": "[46]", "result": "> 100", "unit": "µM"}, {"measurement": "TGI", "setting": "[47]", "result": "> 100", "unit": "µM"}, {"measurement": "TGI", "setting": "[48]", "result": "> 100", "unit": "µM"}, {"measurement": "TGI", "setting": "[49]", "result": "> 100", "unit": "µM"}, {"measurement": "TGI", "setting": "[50]", "result": "> 100", "unit": "µM"}, {"measurement": "TGI", "setting": "[51]", "result": "> 100", "unit": "µM"}, {"measurement": "TGI", "setting": "[52]", "result": "> 100", "unit": "µM"}, {"measurement": "TGI", "setting": "[53]", "result": "> 100", "unit": "µM"}]}, {"compound": "COc1ccc(C2c3cc4c(cc3OC(N3CCCCC3)C2C)OCO4)cc1", "note": "(stereo not given)", "values": [{"measurement": "TGI", "setting": "[1]", "result": "> 100", "unit": "µM"}, {"measurement": "TGI", "setting": "[2]", "result": "> 100", "unit": "µM"}, {"measurement": "TGI", "setting": "[3]", "result": "> 100", "unit": "µM"}, {"measurement": "TGI", "setting": "[4]", "result": "> 100", "unit": "µM"}, {"measurement": "TGI", "setting": "[5]", "result": "> 100", "unit": "µM"}, {"measurement": "TGI", "setting": "[6]", "result": "> 100", "unit": "µM"}, {"measurement": "TGI", "setting": "[7]", "result": 87.8, "unit": "µM"}, {"measurement": "TGI", "setting": "[54]", "result": "> 100", "unit": "µM"}, {"measurement": "TGI", "setting": "[55]", "result": "> 100", "unit": "µM"}, {"measurement": "TGI", "setting": "[8]", "result": "> 100", "unit": "µM"}, {"measurement": "TGI", "setting": "[9]", "result": "> 100", "unit": "µM"}, {"measurement": "TGI", "setting": "[11]", "result": "> 100", "unit": "µM"}, {"measurement": "TGI", "setting": "[12]", "result": "> 100", "unit": "µM"}, {"measurement": "TGI", "setting": "[13]", "result": "> 100", "unit": "µM"}, {"measurement": "TGI", "setting": "[14]", "result": "> 100", "unit": "µM"}, {"measurement": "TGI", "setting": "[15]", "result": "> 100", "unit": "µM"}, {"measurement": "TGI", "setting": "[16]", "result": "> 100", "unit": "µM"}, {"measurement": "TGI", "setting": "[17]", "result": "> 100", "unit": "µM"}, {"measurement": "TGI", "setting": "[19]", "result": "> 100", "unit": "µM"}, {"measurement": "TGI", "setting": "[20]", "result": "> 100", "unit": "µM"}, {"measurement": "TGI", "setting": "[21]", "result": "> 100", "unit": "µM"}, {"measurement": "TGI", "setting": "[22]", "result": "> 100", "unit": "µM"}, {"measurement": "TGI", "setting": "[24]", "result": "> 100", "unit": "µM"}, {"measurement": "TGI", "setting": "[25]", "result": "> 100", "unit": "µM"}, {"measurement": "TGI", "setting": "[26]", "result": "> 100", "unit": "µM"}, {"measurement": "TGI", "setting": "[27]", "result": "> 100", "unit": "µM"}, {"measurement": "TGI", "setting": "[28]", "result": "> 100", "unit": "µM"}, {"measurement": "TGI", "setting": "[29]", "result": "> 100", "unit": "µM"}, {"measurement": "TGI", "setting": "[30]", "result": "> 100", "unit": "µM"}, {"measurement": "TGI", "setting": "[31]", "result": "> 100", "unit": "µM"}, {"measurement": "TGI", "setting": "[33]", "result": "> 100", "unit": "µM"}, {"measurement": "TGI", "setting": "[34]", "result": "> 100", "unit": "µM"}, {"measurement": "TGI", "setting": "[35]", "result": "> 100", "unit": "µM"}, {"measurement": "TGI", "setting": "[56]", "result": "> 100", "unit": "µM"}, {"measurement": "TGI", "setting": "[37]", "result": "> 100", "unit": "µM"}, {"measurement": "TGI", "setting": "[38]", "result": "> 100", "unit": "µM"}, {"measurement": "TGI", "setting": "[39]", "result": "> 100", "unit": "µM"}, {"measurement": "TGI", "setting": "[41]", "result": 84.9, "unit": "µM"}, {"measurement": "TGI", "setting": "[43]", "result": "> 100", "unit": "µM"}, {"measurement": "TGI", "setting": "[44]", "result": "> 100", "unit": "µM"}, {"measurement": "TGI", "setting": "[46]", "result": "> 100", "unit": "µM"}, {"measurement": "TGI", "setting": "[47]", "result": "> 100", "unit": "µM"}, {"measurement": "TGI", "setting": "[48]", "result": "> 100", "unit": "µM"}, {"measurement": "TGI", "setting": "[49]", "result": "> 100", "unit": "µM"}, {"measurement": "TGI", "setting": "[51]", "result": "> 100", "unit": "µM"}, {"measurement": "TGI", "setting": "[52]", "result": "> 100", "unit": "µM"}, {"measurement": "TGI", "setting": "[53]", "result": "> 100", "unit": "µM"}]}]}
